Read-outs that look alike come from different tables or passages of the source.
Assays:
[1] = cited from earlier work
[2] = Blood hydromorphone after 1, 3, 6 or 10 pills of PF329 with or without nafamostat in rats; assay type: in vivo; conditions: rats, 1, 3, 6 or 10 PF329 pills containing nafamostat (FIG. 5)
Source text: The rat experiments were repeated with a derivative of hydromorphone (referred to herein as PF329), which is another known pain medication. FIGS. 4 and 5 show the blood concentration of active hydromorphone (HM) after the administration of 1, 3, 6, or 10 pills, either without or with nafamostat.

[3] = Effect of nafamostat on plasma oxycodone after oral KC-8 in rats; assay type: in vivo; conditions: nafamostat co-administered with an oxycodone or hydromorphone derivative
Experimental: The drug nafamostat mesylate was added to the formulations containing the KC-8 oxycodone-derivative. In the examples described herein, the terms “nafamostat mesylate” and “nafamostat” are used interchangeably.
Formulations containing both KC-8 and optionally nafamostat were administered orally to rats. The KC-8 dose was 5 mg/kg and the nafamostat concentration was 0, 0.1, 0.5, or 1 mg/kg. Plasma concentrations of active oxycodone were measured at various time intervals over 24 hours after administration.
In contrast, additional nafamostat reduced the maximum oxycodone concentration to a peak of about 0.75 ng/ml at about 5 hours. The error bars represent one standard deviation.
In particular, the rats received 50 mg/kg of KC-8 and 0, 1, 5, or 10 mg/kg of nafamostat. With zero nafamostat, blood plasma concentration experienced a maximum of about 22 ng/ml at about 2 hours, wherein the concentration rapidly descended thereafter. In alignment with the data of FIG. 2, higher concentrations of nafamostat reduced the peak concentration to about 3 ng/ml at about 8 hours.

In the case of `COc1ccc2c3c1O[C@H]1C(OC(=O)N(C)CC(C)(C)CNC(=O)[C@H](CCCNC(=N)N)NC(=O)CNC(=O)CC(=O)O)=CC[C@@]4(O)[C@@H](C2)N(C)CC[C@]314` [KC-8, N-1-[3-(oxycodone-6-enol-carbonyl-methyl-amino)-2,2-dimethyl-propylamine]-arginine-glycine-malonic acid], the safety and tolerability ([1]; previous SAD study, doses of up to 200 mg KC-8 (80 mg oxycodone)) is given as “safe and well tolerated”.

For `N=C(N)c1ccc2cc(OC(=O)c3ccc(N=C(N)N)cc3)ccc2c1` [nafamostat, 6-carbamimidoylnaphthalen-2-yl 4-(diaminomethyleneamino)benzoate], the “change of hydromorphone blood concentration on administering more pills” value [2] is given as “little increase”, the “effect on maximum concentration of active drug in blood plasma” value [3] is given as “significantly reduced the maximum concentration of active drug in blood plasma” and the safety and tolerability ([1]; 200 mg nafamostat, healthy volunteer SAD data) is given as “safe and well tolerated”.

From patent publication US12636253B2, “Modified release compositions of nafamostat and methods of using same” (Ensysce Biosciences Inc., priority 2021, dated 2026)
